One series concerns the target wild-type HIV protease (Human immunodeficiency virus type 1 group M subtype B, UniProt P04585). In words: biochemical.
Series [1] deals with HIV protease mutant enzyme Q-60 (Human immunodeficiency virus type 1, UniProt P04585). Briefly: inhibition of microbial expressed HIV protease (WO 01/05230), mutant enzyme Q-60. The format is biochemical.
Series [2] concerns the target HIV protease mutant enzyme K-60 (Human immunodeficiency virus type 1, UniProt P04585). In words: inhibition of microbial expressed HIV protease (WO 01/05230), mutant enzyme K-60. Format: biochemical.
Series [3] addresses HIV protease mutant enzyme V-18 (Human immunodeficiency virus type 1, UniProt P04585). In words: inhibition of microbial expressed HIV protease (WO 01/05230), mutant enzyme V-18. The format is biochemical.
For series [4], the system named is wild-type viral construct. Briefly: cell spread assay (WO 01/05230), wild-type viral construct. Format: cell-based, HIV. An excerpt:
(§1) Compound A and its hydrohalide salts are inhibitors of HIV protease, including mutant forms thereof that are resistant to known protease inhibitors.

Another series relates to viral construct Q60. In words: cell spread assay (WO 01/05230), viral construct Q60. The format is cell-based, HIV.
Source text: as §1

In a further series the test system is viral construct K-60. In words: cell spread assay (WO 01/05230), viral construct K-60. The format is cell-based, HIV.
Source text: as §1

Another series deals with viral construct V-18. Briefly: cell spread assay (WO 01/05230), viral construct V-18. The format is cell-based, HIV.
Source text: as §1

Series [5] is described as follows: solubility in aqueous solutions. To be noted: aqueous solutions including dilute HCl (gastric acid) solutions. The format is physicochemical.
Series [6] is described as follows: oral absorption and pharmacokinetics in animal models. Format: in vivo.

The term IC50 denotes the midpoint of a concentration-inhibition curve.

As to `COc1cncc(-c2cnc(C(C)(C)N3CCN(C[C@@H](O)C[C@@H](Cc4ccccc4)C(=O)N[C@H]4c5ccccc5OC[C@H]4O)[C@H](C(=O)NCC(F)(F)F)C3)o2)c1` [Compound A, (αR,γS,2S)-N-[(3S,4S)-3,4-dihydro-3-hydroxy-2H-1-benzopyran-4-yl]-y-hydroxy-4-[1-[5-(5-methoxy-3-pyridinyl)-2-oxazolyl]-1-methylethyl]-α-(phenylmethyl)-2-[[(2,2,2-trifluoroethyl)amino]carbonyl]-1-piperazinepentanamide], the IC50 against wild-type HIV protease is below 1 nM; in series [1], below 5 nM; in [2], below 5 nM; in series [3] it was below 5 nM. For the same molecule, the “potency compared with indinavir” value (on wild-type HIV protease (HIV protease inhibition assay); in series [4] (cell spread assay)) was “significantly more potent” in each case. In addition, the CIC95 result is recorded as “below 50 nM” in [4] (wild-type viral construct), “below 125 nM” with viral construct Q60, “below 125 nM” in the series with viral construct K-60 and “below 125 nM” in the series on viral construct V-18. Also, in series [5], the solubility entry was “relatively low solubility”. Further, the oral absorption result in [6] is “poor oral absorption”.

The values above are taken from patent US20030125336A1, “Hydrohalide salts of an HIV protease inhibitor” (priority 2001, published 2003).
